Laboratory results published in PubChem BioAssay AID330 (DTP/NCI, 2004).
“And” between values parts separate entries of the source, which are not always exact repeats. Equal values may be shown once. Toxic doses and inconclusive results are not listed. How the source made its calls: active means survival T/C of 150% or more; inactive means T/C below 125% in these data.

Test system: P388 leukemia ip, CD2F1 mice, survival T/C
Test: NCI In Vivo Anticancer Drug Screen. Data for tumor model P388 Leukemia (intraperitoneal) in CD2F1 (CDF1) mice
Conditions: endpoint: median survival time, higher = longer survival
Procedure, shortened: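 Mice carrying the transplanted tumor received test compound or vehicle. Survival was recorded in each group, and the value is the treated-group measurement divided by that of the vehicle-treated control group.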

[1] = dose: 50.0 mg/kg/injection, schedule: Q01DX005 (ip), vehicle: saline
[2] = dose: 100.0 mg/kg/injection, schedule: Q01DX005 (ip), vehicle: saline
[3] = dose: 200.0 mg/kg/injection, schedule: Q01DX005 (ip), vehicle: saline
[4] = dose: 50.0 mg/kg/injection, schedule: Q01DX005 (ip), vehicle: saline with Tween-80
[5] = dose: 50.0 mg/kg/injection, schedule: Q01DX009 (ip), vehicle: Klucel (hydroxypropylcellulose) (HPC)
[6] = dose: 100.0 mg/kg/injection, schedule: Q01DX009 (ip), vehicle: Klucel (hydroxypropylcellulose) (HPC)
[7] = dose: 200.0 mg/kg/injection, schedule: Q01DX009 (ip), vehicle: Klucel (hydroxypropylcellulose) (HPC)
[8] = dose: 60.0 mg/kg/injection, schedule: Q01DX005 (ip), vehicle: Klucel (hydroxypropylcellulose) (HPC)
[9] = dose: 120.0 mg/kg/injection, schedule: Q01DX005 (ip), vehicle: Klucel (hydroxypropylcellulose) (HPC)
[10] = dose: 240.0 mg/kg/injection, schedule: Q01DX005 (ip), vehicle: Klucel (hydroxypropylcellulose) (HPC)
[11] = dose: 100.0 mg/kg/injection, schedule: Q01DX005 (ip), vehicle: saline with Tween-80
[12] = dose: 50.0 mg/kg/injection, schedule: Q01DX009 (ip), vehicle: saline with Tween-80
[13] = dose: 100.0 mg/kg/injection, schedule: Q01DX009 (ip), vehicle: saline with Tween-80
[14] = dose: 200.0 mg/kg/injection, schedule: Q01DX009 (ip), vehicle: saline with Tween-80
[15] = dose: 60.0 mg/kg/injection, schedule: Q01DX005 (ip), vehicle: saline with Tween-80
[16] = dose: 120.0 mg/kg/injection, schedule: Q01DX005 (ip), vehicle: saline with Tween-80
[17] = dose: 240.0 mg/kg/injection, schedule: Q01DX005 (ip), vehicle: saline with Tween-80
[18] = dose: 50.0 mg/kg/injection, schedule: Q01DX005 (ip), vehicle: Klucel (hydroxypropylcellulose) (HPC)
[19] = dose: 100.0 mg/kg/injection, schedule: Q01DX005 (ip), vehicle: Klucel (hydroxypropylcellulose) (HPC)
[20] = dose: 200.0 mg/kg/injection, schedule: Q01DX005 (ip), vehicle: Klucel (hydroxypropylcellulose) (HPC)
[21] = dose: 100.0 mg/kg/injection, schedule: Q04DX003 (ip), vehicle: saline with Tween-80
[22] = dose: 200.0 mg/kg/injection, schedule: Q04DX003 (ip), vehicle: saline with Tween-80
[23] = dose: 400.0 mg/kg/injection, schedule: Q04DX003 (ip), vehicle: saline with Tween-80
[24] = dose: 200.0 mg/kg/injection, schedule: Q01DX005 (ip), vehicle: saline with Tween-80

Measured: T/C

C1CCN2CSCCCC2C1 (configuration not stated)
inactive: [1] 100 % of control | [2] 104 % of control | [3] 111 % of control

COCc1cn[nH]n1
inactive: dose: 60.0 mg/kg/injection, schedule: Q01DX005 (ip), vehicle: saline 100 % of control | dose: 120.0 mg/kg/injection, schedule: Q01DX005 (ip), vehicle: saline 99 % of control | dose: 240.0 mg/kg/injection, schedule: Q01DX005 (ip), vehicle: saline 104 % of control

C1=NN2C3c4ccccc4C(C1)C32 (configuration not stated)
inactive: dose: 100.0 mg/kg/injection, schedule: Q01DX001 (ip), vehicle: Klucel (hydroxypropylcellulose) (HPC) 109 % of control | dose: 200.0 mg/kg/injection, schedule: Q01DX001 (ip), vehicle: Klucel (hydroxypropylcellulose) (HPC) 113 % of control

COC(=O)Nc1nc2cc(OC)c(OC)cc2c(=O)[nH]1
inactive: dose: 25.0 mg/kg/injection, schedule: Q01DX005 (ip), vehicle: saline with Tween-80 111 % of control | [4] 107 % of control

C/C(=N\NS(=O)(=O)c1ccc(C)cc1)c1cccs1
inactive: [5] 100 % of control | [6] 91 % of control | [7] 92 % of control

O=C1C(Cc2ccccc2)C(=O)N2c3ccccc3C=CC2N1c1ccccc1 (configuration not stated)
inactive: [8] 98 % of control | [9] 97 % of control | [10] 89 % of control

COc1cc(OC)c(NC(=O)CC2SC(N)=NC2=O)cc1Cl (configuration not stated)
inactive: [5] 97 % of control | [6] 97 % of control

CC1(C)CC(O)CC2(C)OC(=O)C=C12 (configuration not stated)
inactive: dose: 2.5 mg/kg/injection, schedule: Q01DX009 (ip), vehicle: DMSO 101 % of control | dose: 5.0 mg/kg/injection, schedule: Q01DX009 (ip), vehicle: DMSO 103 % of control | dose: 10.0 mg/kg/injection, schedule: Q01DX009 (ip), vehicle: DMSO 91 % of control

CCOC(=O)Nc1cc(NC/C(CN(C)c2ccc(OC)cc2)=N/O)c([N+](=O)[O-])c(N)n1
inactive: [4] 86 % of control | [11] 86 % of control

CCCCCCC1(/C=C\c2ccccc2)OCCO1
inactive: [12] 102 % of control | [13] 110 % of control | [14] 101 % of control

CC1=NN(C(=O)c2cccnc2)C(=O)C1N=Nc1ccc(S(=O)(=O)Nc2nc(C)cc(C)n2)cc1 (configuration not stated)
inactive: [12] 101 % of control | [13] 99 % of control | [14] 99 % of control

C=C1C[C@H](O)[C@H]2C(C[Se]c3ccccc3)C(=O)O[C@@H]2[C@H]2[C@H](C)C(O)C[C@@H]12 (some centres not stated)
inactive: [15] 91 % of control | [16] 95 % of control | [17] 98 % of control

COc1ccc(/C=C2\SC(=S)N(C3CC3)C2=O)cc1OC
inactive: [18] 94 % of control | [19] 88 % of control

CCOC(=O)Nc1ccc(S(=O)(=O)c2ccc(Nc3ccnc4cc(Cl)ccc34)cc2)cc1
inactive: [18] 94 % of control | [19] 98 % of control | [20] 91 % of control

O=[N+]([O-])c1ccc(/C=N\Nc2ccc([N+](=O)[O-])cn2)cc1
inactive: dose: 100.0 mg/kg/injection, schedule: Q01DX009 (ip), vehicle: saline 100 % of control | [21] 90 % of control | dose: 200.0 mg/kg/injection, schedule: Q01DX009 (ip), vehicle: saline 115 % of control | [22] 104 % of control | dose: 400.0 mg/kg/injection, schedule: Q01DX009 (ip), vehicle: saline 105 % of control | [23] 109 % of control

CS(C)=NS(C)(=O)=O
inactive: dose: 100.0 mg/kg/injection, schedule: Q01DX001 (ip), vehicle: saline 113 % of control | dose: 200.0 mg/kg/injection, schedule: Q01DX001 (ip), vehicle: saline 106 % of control | dose: 400.0 mg/kg/injection, schedule: Q01DX001 (ip), vehicle: saline 107 % of control

[N-]=[N+]=NC(=O)c1cnn(-c2ccccc2)c1N
inactive: dose: 15.0 mg/kg/injection, schedule: Q01DX005 (ip), vehicle: saline with Tween-80 101 % of control | dose: 30.0 mg/kg/injection, schedule: Q01DX005 (ip), vehicle: saline with Tween-80 97 % of control | [15] 106 % of control and 95 % of control

Clc1ccccc1C(Nc1ncccn1)Nc1ncccn1
inactive: [18] 93 % of control | [19] 93 % of control | [20] 96 % of control

CCOC(=S)c1cc(C(=S)OCC)cc(C(C)(C)C)c1
inactive: [21] 103 % of control | [22] 108 % of control | [23] 113 % of control

Cc1cccc(C(=O)O)n1
inactive: dose: 100.0 mg/kg/injection, schedule: Q04DX003 (ip), vehicle: saline 104 % of control | dose: 200.0 mg/kg/injection, schedule: Q04DX003 (ip), vehicle: saline 100 % of control | dose: 400.0 mg/kg/injection, schedule: Q04DX003 (ip), vehicle: saline 109 % of control

CCCOC(CN(C)C)C(Cl)(Cl)Cl (configuration not stated)
inactive: [5] 101 % of control | [6] 104 % of control | [7] 100 % of control

Nc1ccc(SSc2ccc(Nc3ccnc4cc(Cl)ccc34)cc2)cc1
inactive: [4] 92 % of control | [11] 93 % of control | [24] 91 % of control

COc1ccc(CCNCCc2ccc(OC)c(OC)c2)cc1OC
inactive: dose: 6.25 mg/kg/injection, schedule: Q01DX009 (ip), vehicle: water 96 % of control | dose: 12.5 mg/kg/injection, schedule: Q01DX009 (ip), vehicle: water 108 % of control | dose: 25.0 mg/kg/injection, schedule: Q01DX009 (ip), vehicle: water 100 % of control | dose: 50.0 mg/kg/injection, schedule: Q01DX009 (ip), vehicle: water 100 % of control | dose: 100.0 mg/kg/injection, schedule: Q01DX009 (ip), vehicle: water 90 % of control

CSC(=S)N(C)N
inactive: [21] 111 % of control | [22] 105 % of control | [23] 100 % of control

CSC(=NC(=O)c1c(Cl)cccc1Cl)SC
inactive: [15] 102 % of control | [16] 100 % of control | [17] 90 % of control

O=[N+]([O-])c1ccc(/C=C/S(=O)(=O)/C=C\c2ccccc2)cc1
inactive: [4] 101 % of control | [11] 97 % of control | [24] 88 % of control

CCCC1(N2CCCC2)C(=O)NC(=O)N(CC)C1=O (configuration not stated)
inactive: [8] 108 % of control | [9] 93 % of control | [10] 101 % of control

CC1(C)N=C(N)N=C(N)N1c1cccc(CCCCc2cccc(S(=O)(=O)F)c2)c1
inactive: dose: 3.9 mg/kg/injection, schedule: Q04DX003 (ip), vehicle: saline with Tween-80 122 % of control | dose: 25.0 mg/kg/injection, schedule: Q04DX003 (ip), vehicle: saline with Tween-80 95 % of control | dose: 50.0 mg/kg/injection, schedule: Q04DX003 (ip), vehicle: saline with Tween-80 90 % of control

Cc1occ(Br)c(=O)c1O
inactive: [1] 104 % of control | [2] 103 % of control | [3] 103 % of control
